Data: PubChem BioAssay AID330 (DTP/NCI, 2004)
“And” between values parts separate entries of the source, which are not always exact repeats. Equal values may be shown once. Inconclusive results and toxic doses are left out. Rule for the calls: active = survival T/C of 150% or more; inactive = T/C below 125% in these data.

System: P388 leukemia ip, CD2F1 mice, survival T/C
Experiment: NCI In Vivo Anticancer Drug Screen. Data for tumor model P388 Leukemia (intraperitoneal) in CD2F1 (CDF1) mice
Details: endpoint: median survival time, higher = longer survival
Summary of the method: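 Mice carrying the transplanted tumor received test compound or vehicle. Survival was recorded in each group, and the value is the treated-group measurement divided by that of the vehicle-treated control group.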

[1] = dose: 50.0 mg/kg/injection, schedule: Q01DX005 (ip), vehicle: Klucel (hydroxypropylcellulose) (HPC)
[2] = dose: 100.0 mg/kg/injection, schedule: Q01DX005 (ip), vehicle: Klucel (hydroxypropylcellulose) (HPC)
[3] = dose: 200.0 mg/kg/injection, schedule: Q01DX005 (ip), vehicle: Klucel (hydroxypropylcellulose) (HPC)
[4] = dose: 50.0 mg/kg/injection, schedule: Q01DX005 (ip), vehicle: saline with Tween-80
[5] = dose: 100.0 mg/kg/injection, schedule: Q01DX005 (ip), vehicle: saline with Tween-80
[6] = dose: 200.0 mg/kg/injection, schedule: Q01DX005 (ip), vehicle: saline with Tween-80
[7] = dose: 6.25 mg/kg/injection, schedule: Q01DX005 (ip), vehicle: saline with Tween-80
[8] = dose: 12.5 mg/kg/injection, schedule: Q01DX005 (ip), vehicle: saline with Tween-80
[9] = dose: 25.0 mg/kg/injection, schedule: Q01DX005 (ip), vehicle: saline with Tween-80
[10] = dose: 60.0 mg/kg/injection, schedule: Q01DX005 (ip), vehicle: saline with Tween-80
[11] = dose: 120.0 mg/kg/injection, schedule: Q01DX005 (ip), vehicle: saline with Tween-80
[12] = dose: 50.0 mg/kg/injection, schedule: Q01DX001 (ip), vehicle: Klucel (hydroxypropylcellulose) (HPC)
[13] = dose: 50.0 mg/kg/injection, schedule: Q01DX009 (ip), vehicle: saline
[14] = dose: 12.5 mg/kg/injection, schedule: Q01DX009 (ip), vehicle: saline
[15] = dose: 25.0 mg/kg/injection, schedule: Q01DX009 (ip), vehicle: saline

Measured: T/C

COC(=O)[C@H]1[C@H]2C[C@@H]3c4[nH]c5cc(OC)ccc5c4CCN3C[C@H]2C[C@@H](OC(=O)c2cc(OC)c(OC)c(OC)c2)[C@@H]1OC
inactive: dose: 0.25 mg/kg/injection, schedule: Q01DX009 (ip), vehicle: Klucel (hydroxypropylcellulose) (HPC) 100 % of control | dose: 0.5 mg/kg/injection, schedule: Q01DX009 (ip), vehicle: Klucel (hydroxypropylcellulose) (HPC) 97 % of control | dose: 1.0 mg/kg/injection, schedule: Q01DX009 (ip), vehicle: Klucel (hydroxypropylcellulose) (HPC) 97 % of control | dose: 2.0 mg/kg/injection, schedule: Q01DX009 (ip), vehicle: Klucel (hydroxypropylcellulose) (HPC) 95 % of control | dose: 4.0 mg/kg/injection, schedule: Q01DX009 (ip), vehicle: Klucel (hydroxypropylcellulose) (HPC) 96 % of control

CC1(C)OC2OC(C3COC(=S)O3)C(O)C2O1 (centres undefined)
inactive: [1] 98 % of control | [2] 99 % of control | [3] 103 % of control

CCOC(=O)Cc1csc(=S)n1CC
inactive: [4] 98 % of control | [5] 98 % of control | [6] 98 % of control

COC1=CCC2=C(CC[C@H]3[C@H]2CCP3C)C1 (some centres undefined)
inactive: [4] 101 % of control | [5] 111 % of control | [6] 103 % of control

CCOC(=O)c1ccc(N=C/C(Cl)=C(/Cl)C(=O)O)cc1
inactive: dose: 3.12 mg/kg/injection, schedule: Q01DX009 (ip), vehicle: other 102 % of control | dose: 6.25 mg/kg/injection, schedule: Q01DX009 (ip), vehicle: other 92 % of control | dose: 12.5 mg/kg/injection, schedule: Q01DX009 (ip), vehicle: Klucel (hydroxypropylcellulose) (HPC) 92 % of control | dose: 12.5 mg/kg/injection, schedule: Q01DX009 (ip), vehicle: other 89 % of control

CCCCOc1ccc2nc3cc(Cl)ccc3c(Cl)c2n1
inactive: [7] 92 % of control | [8] 93 % of control | [9] 86 % of control

c1ccc(N=C(Nc2ccccc2)C(=Nc2ccccc2)Nc2ccccc2)cc1
inactive: [1] 100 % of control | [2] 96 % of control | [3] 98 % of control

Cc1nc2c(nc1C)C(=O)c1cc(O)ccc1C2=O
inactive: [1] 101 % of control | [2] 104 % of control | [3] 100 % of control

CCCCCCSc1nn(CCC#N)c(=O)[nH]c1=O
inactive: dose: 25.0 mg/kg/injection, schedule: Q01DX005 (ip), vehicle: distilled water + alcohol 103 % of control | dose: 50.0 mg/kg/injection, schedule: Q01DX005 (ip), vehicle: distilled water + alcohol 108 % of control | dose: 100.0 mg/kg/injection, schedule: Q01DX005 (ip), vehicle: distilled water + alcohol 103 % of control | dose: 200.0 mg/kg/injection, schedule: Q01DX005 (ip), vehicle: distilled water + alcohol 92 % of control

COc1ccc2c(c1)CCC(c1nc3ccc(C)cc3[nH]c1=O)C2=O (centres undefined)
inactive: [10] 103 % of control | [11] 108 % of control

OCC1CCCCC1(O)c1ccccc1 (centres undefined)
inactive: [12] 90 % of control | dose: 100.0 mg/kg/injection, schedule: Q01DX001 (ip), vehicle: Klucel (hydroxypropylcellulose) (HPC) 90 % of control | dose: 200.0 mg/kg/injection, schedule: Q01DX001 (ip), vehicle: Klucel (hydroxypropylcellulose) (HPC) 90 % of control

O=c1[nH]c2cc3c(cc2n2cccc12)oc1ccccc13
inactive: [9] 98 % of control | [4] 100 % of control | [5] 100 % of control | [6] 100 % of control

NC1(c2ccccc2)CC2CCC1C2 (centres undefined)
inactive: dose: 12.5 mg/kg/injection, schedule: Q01DX001 (ip), vehicle: Klucel (hydroxypropylcellulose) (HPC) 100 % of control | dose: 25.0 mg/kg/injection, schedule: Q01DX001 (ip), vehicle: Klucel (hydroxypropylcellulose) (HPC) 100 % of control | [12] 100 % of control

c1ccc2nc3c(ccc4ccccc43)cc2c1
inactive: dose: 50.0 mg/kg/injection, schedule: Q04DX003 (ip), vehicle: olive oil, sesame oil, peanut oil 101 % of control | dose: 91.0 mg/kg/injection, schedule: Q04DX003 (ip), vehicle: saline with Tween-80 104 % of control | dose: 100.0 mg/kg/injection, schedule: Q04DX003 (ip), vehicle: olive oil, sesame oil, peanut oil 103 % of control | dose: 182.0 mg/kg/injection, schedule: Q04DX003 (ip), vehicle: saline with Tween-80 101 % of control | dose: 200.0 mg/kg/injection, schedule: Q04DX003 (ip), vehicle: olive oil, sesame oil, peanut oil 103 % of control | dose: 364.0 mg/kg/injection, schedule: Q04DX003 (ip), vehicle: saline with Tween-80 99 % of control | dose: 400.0 mg/kg/injection, schedule: Q04DX003 (ip), vehicle: olive oil, sesame oil, peanut oil 105 % of control

Clc1nn2nnnc2c2ccccc12
inactive: dose: 5.0 mg/kg/injection, schedule: Q01DX009 (ip), vehicle: saline 100 % of control and 96 % of control | dose: 10.0 mg/kg/injection, schedule: Q01DX009 (ip), vehicle: saline 95 % of control and 97 % of control | dose: 20.0 mg/kg/injection, schedule: Q01DX009 (ip), vehicle: saline 89 % of control and 94 % of control | dose: 40.0 mg/kg/injection, schedule: Q01DX009 (ip), vehicle: saline 100 % of control and 91 % of control

Cc1cc(N2CCOCC2)nc(N2CCOCC2)c1C#N
inactive: [7] 100 % of control | [8] 108 % of control | [9] 99 % of control

CCCCCCC(/C=C/c1ccc(Cl)c(Cl)c1)=N\NC(=O)C[N+](C)(C)C
inactive: dose: 12.5 mg/kg/injection, schedule: Q01DX009 (ip), vehicle: saline with Tween-80 100 % of control | dose: 25.0 mg/kg/injection, schedule: Q01DX009 (ip), vehicle: saline with Tween-80 103 % of control | [13] 98 % of control

COc1nc2c(nnn2C2OC(CO)C(O)C(O)C2O)c(=O)[nH]1 (centres undefined)
inactive: dose: 60.0 mg/kg/injection, schedule: Q01DX005 (ip), vehicle: saline 97 % of control | dose: 120.0 mg/kg/injection, schedule: Q01DX005 (ip), vehicle: saline 99 % of control | dose: 240.0 mg/kg/injection, schedule: Q01DX005 (ip), vehicle: saline 100 % of control

CCCCCC(CN(C)C)C(=O)/C=C/c1ccc(Cl)c(Cl)c1 (centres undefined)
inactive: dose: 1.56 mg/kg/injection, schedule: Q01DX009 (ip), vehicle: saline 100 % of control | dose: 3.12 mg/kg/injection, schedule: Q01DX009 (ip), vehicle: saline 100 % of control | dose: 6.25 mg/kg/injection, schedule: Q01DX009 (ip), vehicle: saline 102 % of control | [14] 109 % of control | [15] 92 % of control

O=C1C(=Cc2cccnc2)C(=O)c2ccccc21
inactive: [10] 106 % of control | [11] 111 % of control

CCCCCCCCCCCCCCCC[N+]1([O-])CCCCC1
inactive: [14] 101 % of control | [15] 108 % of control | [13] 100 % of control and 107 % of control

CC(C)(C)N1CC(COc2ccc(Cl)cc2)OC1=O (centres undefined)
inactive: dose: 50.0 mg/kg/injection, schedule: Q01DX009 (ip), vehicle: Klucel (hydroxypropylcellulose) (HPC) 99 % of control | dose: 100.0 mg/kg/injection, schedule: Q01DX009 (ip), vehicle: Klucel (hydroxypropylcellulose) (HPC) 104 % of control | dose: 200.0 mg/kg/injection, schedule: Q01DX009 (ip), vehicle: Klucel (hydroxypropylcellulose) (HPC) 102 % of control

CC1(C)OC2(C)CCC1C1C2N1C(=O)NCCCl (centres undefined)
inactive: dose: 50.0 mg/kg/injection, schedule: Q01DX005 (ip), vehicle: saline 108 % of control | dose: 100.0 mg/kg/injection, schedule: Q01DX005 (ip), vehicle: saline 100 % of control | dose: 200.0 mg/kg/injection, schedule: Q01DX005 (ip), vehicle: saline 89 % of control
